Reference: US20240175819A1, “DIAGNOSTIC TEST” (THE UNIVERSITY OF WARWICK, priority 2022, published 2024)

Tested on: E. coli
Assay: Hydrogel biosensors with encapsulated antibiotic spiked with E. coli; inhibition of bacterial growth by antibiotic release (FIG. 6)
Assay type: cell-based
Details: antibiotic encapsulated within crosslinked hydrogel network, photographs
Excerpt: FIG. 6 is a series of photographs of biosensors each comprising a different antibiotic wherein bacterial growth is inhibited as a result of antibiotic release from the hydrogel network;
Referring now to FIG. 6, there is shown photographs of three biosensors 6A, 6B, 6C each comprising a different antibiotic encapsulated within the crosslinked hydrogel network. Biosensor 6A comprises the antibiotic chloramphenicol, biosensor 6B comprises the antibiotic kanamycin, and biosensor 6C comprises the antibiotic ampicillin. The biosensors 6A, 6B, 6C were spiked with E. coli. In each case, it is shown that there is antibacterial activity in the area surrounding the spiked portion of hydrogel. Therefore, in these cases, E. coli. is shown to be susceptible to the antibiotics encapsulated within the biosensors 6A, 6B, 6C.

Compound | susceptibility of E. coli to the antibiotic encapsulated within the biosensor (antibacterial activity in the area surrounding the spiked portion of hydrogel)
CC1(C)S[C@@H]2[C@H](NC(=O)[C@H](N)c3ccccc3)C(=O)N2[C@H]1C(=O)O [ampicillin] | susceptible
O=C(N[C@H](CO)[C@H](O)c1ccc([N+](=O)[O-])cc1)C(Cl)Cl [chloramphenicol] | susceptible
